# Experimental data published in the supplement of paper PMC11451515.
# Test system: P12-Ichikawa
# Assay: cell viability relative to DMSO control; higher = less cytotoxic
# Conditions: 48 h
# Summary of the method: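 Library compounds in DMSO were pin-dosed in an 11-point threefold series (47 μM to 0.79 nM) onto leukemia cells in 1536-well plates (5 μl). Plates held 500 cells/well of NOMO1 or SEM or 1000 cells/well of P12-Ichikawa, each adapted for at least four passages in each medium. Luminescence was read with CellTiter-Glo One after 48 h at 37°C. Viability means the per-plate percentage relative to DMSO wells, using cell-free wells as background.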
# [1] = HPLM + 10% dialyzed FBS, 0.000781 µM
# [2] = HPLM + 10% dialyzed FBS, 0.00234 µM
# [3] = HPLM + 10% dialyzed FBS, 0.00702 µM
# [4] = HPLM + 10% dialyzed FBS, 0.0211 µM
# [5] = HPLM + 10% dialyzed FBS, 0.0632 µM
# [6] = HPLM + 10% dialyzed FBS, 0.19 µM
# [7] = HPLM + 10% dialyzed FBS, 0.569 µM
# [8] = HPLM + 10% dialyzed FBS, 1.71 µM
# [9] = HPLM + 10% dialyzed FBS, 5.12 µM
# [10] = HPLM + 10% dialyzed FBS, 15.4 µM
# [11] = HPLM + 10% dialyzed FBS, 46.1 µM
# [12] = RPMI 5 mM glucose + 10% FBS, 0.000781 µM
# [13] = RPMI 5 mM glucose + 10% FBS, 0.00234 µM
# [14] = RPMI 5 mM glucose + 10% FBS, 0.00702 µM
# [15] = RPMI 5 mM glucose + 10% FBS, 0.0211 µM
# [16] = RPMI 5 mM glucose + 10% FBS, 0.0632 µM
# [17] = RPMI 5 mM glucose + 10% FBS, 0.19 µM
# [18] = RPMI 5 mM glucose + 10% FBS, 0.569 µM
# [19] = RPMI 5 mM glucose + 10% FBS, 1.71 µM
# [20] = RPMI 5 mM glucose + 10% FBS, 5.12 µM
# [21] = RPMI 5 mM glucose + 10% FBS, 15.4 µM
# [22] = RPMI 5 mM glucose + 10% FBS, 46.1 µM
# [23] = RPMI 5 mM glucose + 10% dialyzed FBS, 0.000781 µM
# [24] = RPMI 5 mM glucose + 10% dialyzed FBS, 0.00234 µM
# [25] = RPMI 5 mM glucose + 10% dialyzed FBS, 0.00702 µM
# [26] = RPMI 5 mM glucose + 10% dialyzed FBS, 0.0211 µM
# [27] = RPMI 5 mM glucose + 10% dialyzed FBS, 0.0632 µM
# [28] = RPMI 5 mM glucose + 10% dialyzed FBS, 0.19 µM
# [29] = RPMI 5 mM glucose + 10% dialyzed FBS, 0.569 µM
# [30] = RPMI 5 mM glucose + 10% dialyzed FBS, 1.71 µM
# [31] = RPMI 5 mM glucose + 10% dialyzed FBS, 5.12 µM
# [32] = RPMI 5 mM glucose + 10% dialyzed FBS, 15.4 µM
# [33] = RPMI 5 mM glucose + 10% dialyzed FBS, 46.1 µM
structure (smiles),measurement,setting,value
COC1=CC=CC(=C1/C2=N/CC3=C(N=C(NC4=CC(=C(C=C4)C(O)=O)OC)N=C3)C5=CC=C(Cl)C=C25)F,cell viability,[1],82.2%
same,cell viability,[2],87.8%
same,cell viability,[3],82.3%
same,cell viability,[4],87.8%
same,cell viability,[5],56%
same,cell viability,[6],16.6%
same,cell viability,[7],13.5%
same,cell viability,[8],12%
same,cell viability,[9],13.9%
same,cell viability,[10],18.2%
same,cell viability,[11],20.5%
same,cell viability,[12],93.8%
same,cell viability,[13],81.6%
same,cell viability,[14],77.9%
same,cell viability,[15],83%
same,cell viability,[16],49%
same,cell viability,[17],22.4%
same,cell viability,[18],16%
same,cell viability,[19],16%
same,cell viability,[20],15.8%
same,cell viability,[21],22.1%
same,cell viability,[22],28.5%
same,cell viability,[23],81%
same,cell viability,[24],80.3%
same,cell viability,[25],77.8%
same,cell viability,[26],77.7%
same,cell viability,[27],49.6%
same,cell viability,[28],30%
same,cell viability,[29],24.2%
same,cell viability,[30],23%
same,cell viability,[31],27.2%
same,cell viability,[32],29.7%
same,cell viability,[33],35.4%
CO[C@H]1C[C@H]2OC[C@@]2(OC(C)=O)[C@H]3[C@H](OC(=O)C4=CC=CC=C4)[C@]5(O)C[C@H](OC(=O)[C@H](O)[C@@H](NC(=O)OC(C)(C)C)C6=CC=CC=C6)/C(=C(/[C@@H](OC)C(=O)[C@]13C)C5(C)C)C,cell viability,[1],78.2%
same,cell viability,[2],87.6%
same,cell viability,[3],29.3%
same,cell viability,[4],28.4%
same,cell viability,[5],19%
same,cell viability,[6],18.9%
same,cell viability,[7],18.8%
same,cell viability,[8],20.1%
same,cell viability,[9],12.1%
same,cell viability,[10],13.4%
same,cell viability,[11],7.21%
same,cell viability,[12],69.9%
same,cell viability,[13],81.6%
same,cell viability,[14],70.8%
same,cell viability,[15],30.4%
same,cell viability,[16],11.6%
same,cell viability,[17],15.3%
same,cell viability,[18],15.2%
same,cell viability,[19],15.9%
same,cell viability,[20],10.5%
same,cell viability,[21],10.6%
same,cell viability,[22],10.8%
same,cell viability,[23],73.7%
same,cell viability,[24],71.1%
same,cell viability,[25],67.9%
same,cell viability,[26],34.5%
same,cell viability,[27],28%
same,cell viability,[28],27.7%
same,cell viability,[29],24.2%
same,cell viability,[30],26.1%
same,cell viability,[31],20.2%
same,cell viability,[32],21%
same,cell viability,[33],11.9%
O=C(O)CCCc1ccc(N(CCCl)CCCl)cc1,cell viability,[1],117%
same,cell viability,[2],116%
same,cell viability,[3],118%
same,cell viability,[4],122%
same,cell viability,[5],125%
same,cell viability,[6],122%
same,cell viability,[7],125%
same,cell viability,[8],126%
same,cell viability,[9],123%
same,cell viability,[10],123%
same,cell viability,[11],20.4%
CCc1nc(C(N)=O)c(Nc2ccc(N3CCC(N4CCN(C)CC4)CC3)c(OC)c2)nc1NC1CCOCC1,cell viability,[1],106%
same,cell viability,[2],103%
same,cell viability,[3],111%
same,cell viability,[4],111%
same,cell viability,[5],114%
same,cell viability,[6],97.4%
same,cell viability,[7],97.7%
same,cell viability,[8],102%
same,cell viability,[9],91.7%
same,cell viability,[10],75.1%
same,cell viability,[11],52.6%
same,cell viability,[12],103%
same,cell viability,[13],101%
same,cell viability,[14],109%
same,cell viability,[15],117%
same,cell viability,[16],112%
same,cell viability,[17],100%
same,cell viability,[18],98.7%
same,cell viability,[19],102%
same,cell viability,[20],88.9%
same,cell viability,[21],71.1%
same,cell viability,[22],52.3%
same,cell viability,[23],110%
same,cell viability,[24],109%
same,cell viability,[25],123%
same,cell viability,[26],111%
same,cell viability,[27],131%
same,cell viability,[28],104%
same,cell viability,[29],108%
same,cell viability,[30],110%
same,cell viability,[31],94.8%
same,cell viability,[32],75.9%
same,cell viability,[33],42.1%
O=C(c1ccc(C(=O)N2CCC(N3CCCC3)CC2)c(Nc2ccccc2)c1)N1CCC(N2CCCC2)CC1,cell viability,[1],103%
same,cell viability,[2],103%
same,cell viability,[3],103%
same,cell viability,[4],106%
same,cell viability,[5],108%
same,cell viability,[6],102%
same,cell viability,[7],106%
same,cell viability,[8],109%
same,cell viability,[9],98.9%
same,cell viability,[10],96.5%
same,cell viability,[11],94.5%
same,cell viability,[12],104%
same,cell viability,[13],95.3%
same,cell viability,[14],93.7%
same,cell viability,[15],101%
same,cell viability,[16],98.1%
same,cell viability,[17],100%
same,cell viability,[18],95.8%
same,cell viability,[19],97.4%
same,cell viability,[20],100%
same,cell viability,[21],92.1%
same,cell viability,[22],95.4%
same,cell viability,[23],98.3%
same,cell viability,[24],97.5%
same,cell viability,[25],95.9%
same,cell viability,[26],96.3%
same,cell viability,[27],100%
same,cell viability,[28],101%
same,cell viability,[29],103%
same,cell viability,[30],101%
same,cell viability,[31],91.1%
same,cell viability,[32],96.1%
same,cell viability,[33],86.1%
COC1=C(CC=C(C)C)C2=C(\C=C/C(=O)O2)C=C1,cell viability,[1],84.2%
same,cell viability,[2],109%
same,cell viability,[3],126%
same,cell viability,[4],121%
same,cell viability,[5],110%
same,cell viability,[6],114%
same,cell viability,[7],97.7%
same,cell viability,[8],87.5%
same,cell viability,[9],69.8%
same,cell viability,[10],65.7%
same,cell viability,[11],58.8%
same,cell viability,[12],96.9%
same,cell viability,[13],96.6%
same,cell viability,[14],116%
same,cell viability,[15],116%
same,cell viability,[16],106%
same,cell viability,[17],104%
same,cell viability,[18],107%
same,cell viability,[19],105%
same,cell viability,[20],80.1%
same,cell viability,[21],81.9%
same,cell viability,[22],54.7%
same,cell viability,[23],101%
same,cell viability,[24],123%
same,cell viability,[25],109%
same,cell viability,[26],112%
same,cell viability,[27],112%
same,cell viability,[28],109%
same,cell viability,[29],98.1%
same,cell viability,[30],92.4%
same,cell viability,[31],75.2%
same,cell viability,[32],76.3%
same,cell viability,[33],55.7%
CNC(=O)c1ccccc1Sc1ccc2c(/C=C/c3ccccn3)n[nH]c2c1,cell viability,[1],116%
same,cell viability,[2],111%
same,cell viability,[3],107%
same,cell viability,[4],115%
same,cell viability,[5],112%
same,cell viability,[6],109%
same,cell viability,[7],106%
same,cell viability,[8],84.5%
same,cell viability,[9],77.8%
same,cell viability,[10],17.9%
same,cell viability,[11],14%
same,cell viability,[12],117%
same,cell viability,[13],116%
same,cell viability,[14],126%
same,cell viability,[15],116%
same,cell viability,[16],110%
same,cell viability,[17],97.2%
same,cell viability,[18],108%
same,cell viability,[19],87%
same,cell viability,[20],78.9%
same,cell viability,[21],28%
same,cell viability,[22],21.6%
O=C(/C=C/c1cccnc1)NCCCCC1CCN(C(=O)c2ccccc2)CC1,cell viability,[1],103%
same,cell viability,[2],72.1%
same,cell viability,[3],15.1%
same,cell viability,[4],7.38%
same,cell viability,[5],5.18%
same,cell viability,[6],4.94%
same,cell viability,[7],4.8%
same,cell viability,[8],4.59%
same,cell viability,[9],4.4%
same,cell viability,[10],4%
same,cell viability,[11],2.9%
same,cell viability,[12],103%
same,cell viability,[13],109%
same,cell viability,[14],16.9%
same,cell viability,[15],6.84%
same,cell viability,[16],5.28%
same,cell viability,[17],5.01%
same,cell viability,[18],4.19%
same,cell viability,[19],4.32%
same,cell viability,[20],3.69%
same,cell viability,[21],2.71%
same,cell viability,[22],1.74%
same,cell viability,[23],102%
same,cell viability,[24],109%
same,cell viability,[25],24.4%
same,cell viability,[26],8.02%
same,cell viability,[27],5.06%
same,cell viability,[28],4.88%
same,cell viability,[29],4.59%
same,cell viability,[30],4.67%
same,cell viability,[31],3.92%
same,cell viability,[32],2.96%
same,cell viability,[33],2.11%
